Experimental data published in patent publication US12668599B2, “Heterobifunctional compounds and methods of treating disease” (Halda Therapeutics OpCo, Inc., priority 2023, dated 2026).

Assays:
[1] = tested on: T-Rex 293 cell line SC3 cells having increased expression of androgen receptor protein due to exposure to doxycycline; test: Cellular growth inhibition, T-Rex 293 SC3 cells with doxycycline-induced androgen receptor (CellTiter-Glo 2.0, 72 hours); type: cell-based; details: for GI50: T-Rex 293 SC3 cells with 10 ng/ml doxycycline (increased androgen receptor expression), 72 hours, CellTiter-Glo 2.0; for Ratio of GI50's: GI50 of the top compound in the pair divided by GI50 of the lower compound, T-Rex 293 SC3 cells with doxycycline-induced androgen receptor
[2] = tested on: T-Rex 293 cell line SC3 cells lacking increased expression of androgen receptor protein; test: Cellular growth inhibition, T-Rex 293 SC3 cells without doxycycline (CellTiter-Glo 2.0, 72 hours); type: cell-based; details: T-Rex 293 SC3 cells not exposed to doxycycline (no increased androgen receptor expression)
[3] = tested on: VCaP cells; test: Cellular growth inhibition assay for VCaP cells (CellTiter-Glo 2.0, 72 hours); type: cell-based, human; details: for GI50: CellTiter-Glo 2.0; for Ratio of GI50's: GI50 of the top compound in the pair divided by GI50 of the lower compound

| GI50 ([3]; Homo sapiens, VCaP, 72 h) [nM] | GI50 ([3]; 72 hours) [nM] | Ratio of GI50's [3] | Compound | GI50 [1] [nM] | GI50 ([2]; 72 h) [nM] | GI50 [2] [nM] | Ratio of GI50's [1] |
| --- | --- | --- | --- | --- | --- | --- | --- |
| < 500 |  |  | COC[C@@H]1N=C(c2ccc(C#CC3CC4(C3)CN(c3ccc(C(=O)N[C@H]5CC[C@H](Oc6ccc(C#N)c(OC)c6)CC5)nn3)C4)cc2)c2c(sc(C)c2C)-n2c(C)nnc21 [Compound I-32, N-[4-(4-cyano-3-methoxy-phenoxy)cyclohexyl]-6-[6-[2-[4-[(9R)-9-(methoxymethyl)-4,5,13-trimethyl-3-thia-1,8,11,12-tetrazatricyclo[8.3.0.0^2,6]trideca-2 (6),4,7,10,12-pentaen-7-yl]phenyl]ethynyl]-2-azaspiro[3.3]heptan-2-yl]pyridazine-3-carboxamide] | < 500 | < 500 |  |  |
| < 500 |  |  | COC[C@@H]1N=C(c2ccc(C#CC3CC4(C3)CN(c3ccc(C(=O)N[C@H]5CC[C@H](Oc6ccc(C#N)c(OC(F)(F)F)c6)CC5)nn3)C4)cc2)c2c(sc(C)c2C)-n2c(C)nnc21 [Compound I-8, N-[4-[4-cyano-3-(trifluoromethoxy)phenoxy]cyclohexyl]-6-[6-[2-[4-[(9R)-9-(methoxymethyl)-4,5,13-trimethyl-3-thia-1,8,11,12-tetrazatricyclo[8.3.0.0^2,6]trideca-2 (6),4,7,10,12-pentaen-7-yl]phenyl]ethynyl]-2-azaspiro[3.3]heptan-2-yl]pyridazine-3-carboxamide] | < 500 | < 500 |  |  |
| < 500 |  |  | COc1cc(O[C@H]2CC[C@H](NC(=O)c3ccc(N4C[C@]5(C)CN(c6ccc(C7=N[C@@H](C)c8nnc(C)n8-c8sc(C)c(C)c87)cc6)C[C@]5(C)C4)nn3)CC2)ccc1C#N [Compound I-48] | < 500 | < 500 |  |  |
|  | < 500 | 1 | COc1cc(O[C@H]2CC[C@H](NC(=O)c3ccc(N4CCC5(CCN(c6ccc(C7=N[C@@H](C)c8nnc(C)n8-c8sc(C)c(C)c87)cc6)CC5)C4)nn3)CC2)ccc1C#N [Compound I-17, N-[4-(4-cyano-3-methoxy-phenoxy)cyclohexyl]-6-[8-[4-[(9S)-4,5,9,13-tetramethyl-3-thia-1,8,11,12-tetrazatricyclo[8.3.0.0^2,6]trideca-2 (6),4,7,10,12-pentaen-7-yl]phenyl]-2,8-diazaspiro[4.5]decan-2-yl]pyridazine-3-carboxamide] | < 500 |  | < 500 | 1 |
|  | < 500 |  | COc1cc(O[C@H]2CC[C@H](NC(=O)c3ccc(N4CCC5(CCC(c6ccc(C7=N[C@@H](C)c8nnc(C)n8-c8sc(C)c(C)c87)cc6)C5)C4)nn3)CC2)ccc1C#N (stereo partly shown) [Compound I-95] | < 500 |  | < 500 |  |
| < 500 |  |  | COc1cc(O[C@H]2CC[C@H](NC(=O)c3ccc(N4CC5(CC(C#Cc6ccc(C7=N[C@@H](C)c8nnc(C)n8-c8sc(C)c(C)c87)cc6)C5)C4)nn3)CC2)ccc1C#N [Compound I-40, N-[4-(4-cyano-3-methoxy-phenoxy)cyclohexyl]-6-[6-[2-[4-[(9S)-4,5,9,13-tetramethyl-3-thia-1,8,11,12-tetrazatricyclo[8.3.0.0^2,6]trideca-2 (6),4,7,10,12-pentaen-7-yl]phenyl]ethynyl]-2-azaspiro[3.3]heptan-2-yl]pyridazine-3-carboxamide] | < 500 | < 500 |  |  |
|  | < 500 |  | COc1cc(O[C@H]2CC[C@H](NC(=O)c3ccc(N4CCC5(CCC(c6ccc(C7=N[C@@H](C)c8nnc(C)n8-c8sc(C)c(C)c87)cc6)CC5)C4)nn3)CC2)ccc1C#N (stereo partly shown) [Compound I-20] | < 500 |  | < 500 |  |
| < 500 |  |  | COc1cc(O[C@H]2CC[C@H](NC(=O)c3ccc(N4CCC5(CCC(Oc6ccc(C7=N[C@@H](C)c8nnc(C)n8-c8sc(C)c(C)c87)cc6)C5)C4)nn3)CC2)ccc1C#N (stereo partly shown) [Compound I-50] | < 500 | < 500 |  |  |
| < 500 |  |  | COCC[C@@H]1N=C(c2ccc(C#CC3CC4(C3)CN(c3ccc(C(=O)N[C@H]5CC[C@H](Oc6ccc(C#N)c(OC(F)(F)F)c6)CC5)nn3)C4)cc2)c2c(sc(C)c2C)-n2c(C)nnc21 [Compound I-9, N-[4-[4-cyano-3-(trifluoromethoxy)phenoxy]cyclohexyl]-6-[6-[2-[4-[(9S)-9-(2-methoxyethyl)-4,5,13-trimethyl-3-thia-1,8,11,12-tetrazatricyclo[8.3.0.0^2,6]trideca-2 (6),4,7,10,12-pentaen-7-yl]phenyl]ethynyl]-2-azaspiro[3.3]heptan-2-yl]pyridazine-3-carboxamide] | < 500 | < 500 |  |  |

Second part, the compound before the results:

| Compound | GI50 ([3]; Homo sapiens, VCaP, 72 h) [nM] | GI50 ([3]; 72 hours) [nM] | Ratio of GI50's [3] | GI50 [1] [nM] | GI50 ([2]; 72 h) [nM] | GI50 [2] [nM] | Ratio of GI50's [1] |
| --- | --- | --- | --- | --- | --- | --- | --- |
| CCc1csc2c1C(c1ccc(OC3CC4(CCN(c5ncc(C(=O)N[C@H]6C(C)(C)[C@H](Oc7ccc(C#N)c(OC)c7)C6(C)C)cn5)CC4)C3)cc1)=N[C@@H](Cc1ncco1)c1nnc(C)n1-2 [III-1, N-[(1r,3r)-3-(4-cyano-3-methoxy-phenoxy)-2,2,4,4-tetramethyl-cyclobutyl]-2-[2-[4-[(9S)-5-ethyl-13-methyl-9-(oxazol-2-ylmethyl)-3-thia-1,8,11,12-tetrazatricyclo[8.3.0.0^2,6]trideca-2 (6),4,7,10,12-pentaen-7-yl]phenoxy]-7-azaspiro[3.5]nonan-7-yl]pyrimidine-5-carboxamide] | < 500 |  |  | < 500 | 500 to 1500 |  |  |
| COc1cc(O[C@H]2CC[C@H](NC(=O)c3ccc(N4CCC5(CCC(c6ccc(C7=N[C@@H](C)c8nnc(C)n8-c8sc(C)c(C)c87)nc6)CC5)C4)nn3)CC2)ccc1C#N (stereo partly shown) [Compound I-89] |  | 500 to 1500 |  | < 500 |  | < 500 |  |
| COc1cc(O[C@H]2CC[C@H](NC(=O)c3ccc(N4CCC5(CCC(c6ccc(C7=N[C@@H](C)c8nnc(C)n8-c8sc(C)c(C)c87)cc6F)CC5)C4)nn3)CC2)ccc1C#N (single isomer, unassigned) [Compound I-56] | < 500 |  |  | < 500 | < 500 |  |  |
| COc1cc(O[C@H]2CC[C@H](NC(=O)c3ccc(N4CC56CCCCC5(CN(c5ccc(C7=N[C@@H](C)c8nnc(C)n8-c8sc(C)c(C)c87)cc5)C6)C4)nn3)CC2)ccc1C#N (stereo partly shown) [Compound I-78] | < 500 |  |  | < 500 | < 500 |  |  |
| COc1cc(O[C@H]2CC[C@H](NC(=O)c3ccc(N4CCC5(CCN(c6ccc(C7=N[C@@H](C)c8nnc(C)n8-c8sc(C)c(C)c87)c(F)c6)CC5)C4)nn3)CC2)ccc1C#N [Compound I-45, N-[4-(4-cyano-3-methoxy-phenoxy)cyclohexyl]-6-[8-[3-fluoro-4-[(9S)-4,5,9,13-tetramethyl-3-thia-1,8,11,12-tetrazatricyclo[8.3.0.0^2,6]trideca-2 (6),4,7,10,12-pentaen-7-yl]phenyl]-2,8-diazaspiro[4.5]decan-2-yl]pyridazine-3-carboxamide] | < 500 |  |  | < 500 | < 500 |  |  |
| COc1cc(O[C@H]2CC[C@H](NC(=O)c3ccc(N4CCC5(CCC(c6ccc(C7=N[C@@H](C)c8nnc(C)n8-c8sc(C)c(C)c87)cc6C)CC5)C4)nn3)CC2)ccc1C#N (stereo partly shown) [Compound I-61] |  | < 500 |  | < 500 |  | < 500 |  |
| COCC[C@@H]1N=C(c2ccc(C#CC3CC4(C3)CN(c3ccc(C(=O)NC5CCC(Oc6ccc(C#N)c(OC)c6)CC5)nn3)C4)cc2)c2c(sc(C)c2C)-n2c(C)nnc21 (stereo partly drawn) [Compound I-30, N-[4-(4-cyano-3-methoxy-phenoxy)cyclohexyl]-6-[6-[2-[4-[(9S)-9-(2-methoxyethyl)-4,5,13-trimethyl-3-thia-1,8,11,12-tetrazatricyclo[8.3.0.0^2,6]trideca-2 (6),4,7,10,12-pentaen-7-yl]phenyl]ethynyl]-2-azaspiro[3.3]heptan-2-yl]pyridazine-3-carboxamide] |  | < 500 |  | < 500 |  | < 500 |  |
| COc1cc(O[C@H]2CC[C@H](NC(=O)c3ccc(-n4cc5c(c4)CN(c4ccc(C6=N[C@@H](C)c7nnc(C)n7-c7sc(C)c(C)c76)cc4)C5)nn3)CC2)ccc1C#N [Compound I-108] | < 500 |  |  | < 500 | < 500 |  |  |
| COc1cc(O[C@H]2CC[C@H](NC(=O)c3cnc(N4CCC5(CCC(c6ccc(C7=N[C@@H](C)c8nnc(C)n8-c8sc(C)c(C)c87)cc6)CC5)C4)nc3)CC2)ccc1C#N (stereo partly shown) [Compound I-35] | < 500 |  |  | < 500 | < 500 |  |  |
| CC[C@@H]1N=C(c2ccc(C3CCC4(CC3)CCN(c3ccc(C(=O)NC5CCC(Oc6ccc(C#N)c(OC(F)(F)F)c6)CC5)nn3)C4)cc2)c2c(sc(C)c2C)-n2c(C)nnc21 (stereo partly drawn) [Compound I-13, N-((1r,4r)-4-(4-cyano-3-(trifluoromethoxy)phenoxy)cyclohexyl)-6-(8-(4-((S)-6-ethyl-2,3,9-trimethyl-6H-thieno[3,2-f][1,2,4]triazolo[4,3-a][1,4]diazepin-4-yl)phenyl)-2-azaspiro[4.5]decan-2-yl) pyridazine-3-carboxamide] |  | < 500 |  | < 500 |  | < 500 |  |
| COc1cc(O[C@H]2CC[C@H](NC(=O)c3ccc(N4CCC5(CCC(c6ccc(C7=N[C@@H](C)c8nnc(C)n8-c8sc(C)c(C)c87)cc6C(C)C)CC5)C4)nn3)CC2)ccc1C#N (stereo partly shown) [Compound I-122] |  | 500 to 1500 |  | < 500 |  | 1500 to 3000 |  |
| COc1cc(O[C@H]2CC[C@H](NC(=O)c3ccc(N4CCC5(CCC(c6ccc(C7=N[C@@H](Cc8ncco8)c8nnc(C)n8-c8sc(C)c(C)c87)cc6)CC5)C4)nn3)CC2)ccc1C#N (stereo partly shown) [Compound I-101] |  | < 500 | 1 | < 500 |  | < 500 | 1 |
| COc1cc(O[C@H]2CC[C@H](NC(=O)c3ccc(N4CCC5(CC4)CC(Oc4ccc(C6=N[C@@H](Cc7ncco7)c7nnc(C)n7-c7sc(C)c(C)c76)cc4F)C5)nn3)CC2)ccc1C#N [Compound I-133] | < 500 |  |  | < 500 | < 500 |  |  |
